We go through one compound from patent US20220195389A1, “METHODS OF IMPROVING THE LONGEVITY OF IMMUNE CELLS” (University of Houston System, priority 2019, published 2022).

This data set relates to T cells. Put plainly: T-cell viability after incubation with compound C. It counts as cell-based, human. The conditions noted are these: 10 μM dorsomorphin, 6-24 hours. On the procedure:
T cells were incubated with 10 μM dorsomorphin (Sigma Aldrich) for a period of 6-24 hours. The T cells were subsequently used for either motility assays or functional profiling using TIMING assays.

With `c1cc(-c2cnn3cc(-c4ccc(OCCN5CCCCC5)cc4)cnc23)ccn1` [CC, dorsomorphin], the “impact on T-cell viability” value is “did not have an impact”.
